pIC50: −log10 of the molar value.
The compounds below were run on PMA-differentiated THP-1 cells (assay: IL-1β production in PMA-differentiated THP-1 cells stimulated with gramicidin (hTHP-1 assay containing 2% fetal bovine serum; Procedures 1 and 2)). Settings: Homo sapiens, THP-1, Table B1; 2% fetal bovine serum; class symbols; read-out: Average IC50 of compounds in hTHP-1 assay: hTHP-1 IC50.
Type: cell-based, human
Outline: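 Human monocytic THP-1 cells, matured overnight with PMA at 20 ng/ml, are seeded in low-serum (2% FBS) RPMI. Test compounds, at final concentrations from 100 down to 0.0017 μM, precede gramicidin (5 μM, 2 h) by one hour. Released IL-1β is then determined by HTRF.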
Work on `CC(C)c1ncc(F)c(C(C)C)c1NC(=O)N=S(N)(=O)c1ccc(CN(C)C)cc1` (single isomer, unassigned) [Compound 132a, (R) or (S)-4-((dimethyl-amino)methyl)-N′-((5-fluoro-2,4-diisopropylpyridin-3-yl)carbamoyl)benzene-sulfonimidamide] yielded a pIC50 of 4.52 to 5.30. Work on `CC1CCc2c1nc1c(c2NC(=O)N=S(N)(=O)c2ccc(CN(C)C)cc2)CCC1` (single isomer, unassigned) [Compound 134ba, (R,R) or (R,S)-4-((dimethyl-amino)methyl)-N′-((3-methyl-1,2,3,5,6,7-hexa-hydrodicyclo-penta[b,e]pyridin-8-yl)carbamoyl)benzene-sulfonimidamide] yielded a pIC50 of 5.30 to 6.00. Compound `CC1CCc2c1nc1c(c2NC(=O)N=S(N)(=O)c2ncc(C(C)(C)O)s2)CCC1` (single isomer, unassigned) [Compound 140aa, (R,R) or (R,S)-5-(2-hydroxypropan-2-yl)-N′-((3-methyl-1,2,3,5,6,7-hexa-hydrodicyclo-penta[b,e]pyridin-8-yl)carbamoyl)thiazole-2-sulfonimidamide] has a pIC50 of 6.70 to 7.40. In the case of `CC1CCc2c1nc1c(c2NC(=O)N=S(N)(=O)c2cc(C(C)(C)O)cs2)CCC1` (single isomer, unassigned) [Compound 141ab, (R,S) or (R,R)-4-(2-hydroxypropan-2-yl)-N′-((3-methyl-1,2,3,5,6,7-hexahydro-dicyclopenta[b,e]pyridin-8-yl)carbamoyl)thiophene-2-sulfonimidamide], the pIC50 was 6.00 to 6.70.

Same assay, conditions: Homo sapiens, THP-1, Table B1; 2% fetal bovine serum; numeric bounds; read-out: Average IC50 of compounds in hTHP-1 assay: hTHP-1 IC50
In the case of `CC(C)c1ncc(F)c(C(C)C)c1NC(=O)N=S(N)(=O)c1ccc(CN(C)C)cc1` (single isomer, unassigned) [Compound 132b, (S) or (R)-4-((dimethyl-amino)methyl)-N′-((5-fluoro-2,4-diisopropylpyridin-3-yl)carbamoyl)benzene-sulfonimidamide], the pIC50 was < 4.52. For `Cc1nc(C)c(C)c(NC(=O)N=S(N)(=O)c2cnc(C(C)(C)O)s2)c1C` (single isomer, unassigned) [Compound 133a, (R) or (S)-2-(2-hydroxypropan-2-yl)-N′-((2,3,5,6-tetramethylpyridin-4-yl)carbamoyl)thiazole-5-sulfonimidamide], the pIC50 was < 4.52. In the case of `CC1CCc2c1nc1c(c2NC(=O)N=S(N)(=O)c2ccc(CN(C)C)cc2)CCC1` (single isomer, unassigned) [Compound 134aa, (S,S) or (S,R)-4-((di-methylamino)methyl)-N′-((3-methyl-1,2,3,5,6,7-hexahydrodicyclo-penta[b,e]pyridin-8-yl)carbamoyl)benzene-sulfonimidamide], the pIC50 was < 4.52. With `CC1CCc2c1nc1c(c2NC(=O)N=S(N)(=O)c2ncc(C(C)(C)O)s2)CCC1` (single isomer, unassigned) [Compound 140bb, (S,R) or (S,S)-5-(2-hydroxypropan-2-yl)-N′-((3-methyl-1,2,3,5,6,7-hexa-hydrodicyclo-penta[b,e]pyridin-8-yl)carbamoyl)thiazole-2-sulfonimidamide] the pIC50 was < 4.52. With `CC(C)(O)c1ncc(S(N)(=O)=NC(=O)Nc2cc(-c3ccccc3)nc3c2CCC3)s1` (single isomer, unassigned) [Compound 142a, (R) or (S)-2-(2-hydroxy-propan-2-yl)-N′-((2-phenyl-6,7-dihydro-5H-cyclopenta[b]pyridin-4-yl)carbamoyl)thiazole-5-sulfonimidamide] the pIC50 was < 4.52.

Same assay, conditions: Table B1; 2% fetal bovine serum; class symbols; read-out: Average IC50 of compounds in hTHP-1 assay: hTHP-1 IC50
`CC1CCc2c1nc1c(c2NC(=O)N=S(N)(=O)c2ccc(CN(C)C)cc2)CCC1` (single isomer, unassigned) [Compound 134bb, (R,S) or (R,R)-4-((dimethyl-amino)methyl)-N′-((3-methyl-1,2,3,5,6,7-hexa-hydrodicyclo-penta[b,e]pyridin-8-yl)carbamoyl)benzene-sulfonamidamide] showed a pIC50 of 4.52 to 5.30. `CC(C)(O)c1ncc(S(N)(=O)=NC(=O)Nc2c3c(nc4c2CCC42CC2)CCC3)s1` (single isomer, unassigned) [Compound 136a, (S) or (R)-2-(2-hydroxy-propan-2-yl)-N′-((1′,5′,6′,7′-tetrahydro-2′H-spiro[cyclopropane-1,3′-dicyclopenta[b,e]pyridin]-8′-yl)carbamoyl)thiazole-5-sulfonimidamide] showed a pIC50 of 5.30 to 6.00. `CC(C)(O)c1ncc(S(N)(=O)=NC(=O)Nc2c3c(nc4c2CCC42CC2)CCC3)s1` (single isomer, unassigned) [Compound 136b, (R) or (S)-2-(2-hydroxy-propan-2-yl)-N′-((1′,5′,6′,7′-tetrahydro-2′H-spiro[cyclopropane-1,3′-dicyclopenta[b,e]pyridin]-8′-yl)carbamoyl)thiazole-5-sulfonimidamide] gave a pIC50 of 6.70 to 7.40. With `CC1CCc2c1nc1c(c2NC(=O)N=S(N)(=O)c2ncc(C(C)(C)O)s2)CCC1` (single isomer, unassigned) [Compound 140a, (R,R/S) or (S,R/S)-5-(2-hydroxypropan-2-yl)-N′-((3-methyl-1,2,3,5,6,7-hexa-hydrodicyclo-penta[b,e]pyridin-8-yl)carbamoyl)thiazole-2-sulfonimidamide] the pIC50 was 6.70 to 7.40. Compound `CC1CCc2c1nc1c(c2NC(=O)N=S(N)(=O)c2ncc(C(C)(C)O)s2)CCC1` (single isomer, unassigned) [Compound 140ab, (R,S) or (R,R)-5-(2-hydroxypropan-2-yl)-N′-((3-methyl-1,2,3,5,6,7-hexa-hydrodicyclo-penta[b,e]pyridin-8-yl)carbamoyl)thiazole-2-sulfonimidamide] has a pIC50 of 5.30 to 6.00. Compound `CC1CCc2c1nc1c(c2NC(=O)N=S(N)(=O)c2ncc(C(C)(C)O)s2)CCC1` (single isomer, unassigned) [Compound 140b, (S,R/S) or (R,R/S)-5-(2-hydroxypropan-2-yl)-N′-((3-methyl-1,2,3,5,6,7-hexa-hydrodicyclo-penta[b,e]pyridin-8-yl)carbamoyl)thiazole-2-sulfonimidamide] has a pIC50 of 4.52 to 5.30. Work on `CC1CCc2c1nc1c(c2NC(=O)N=S(N)(=O)c2ncc(C(C)(C)O)s2)CCC1` (single isomer, unassigned) [Compound 140ba, (S,S) or (S,R)-5-(2-hydroxypropan-2-yl)-N′-((3-methyl-1,2,3,5,6,7-hexa-hydrodicyclo-penta[b,e]pyridin-8-yl)carbamoyl)thiazole-2-sulfonimidamide] yielded a pIC50 of 4.52 to 5.30. For `CC1CCc2c1nc1c(c2NC(=O)N=S(N)(=O)c2cc(C(C)(C)O)cs2)CCC1` (single isomer, unassigned) [Compound 141a, (S,R/S) or (R,R/S)-4-(2-hydroxypropan-2-yl)-N′-((3-methyl-1,2,3,5,6,7-hexahydro-dicyclopenta[b,e]pyridin-8-yl)carbamoyl)thiophene-2-sulfonimidamide], the pIC50 was 5.30 to 6.00. For `CC1CCc2c1nc1c(c2NC(=O)N=S(N)(=O)c2cc(C(C)(C)O)cs2)CCC1` (single isomer, unassigned) [Compound 141aa, (R,R) or (R,S)-4-(2-hydroxypropan-2-yl)-N′-((3-methyl-1,2,3,5,6,7-hexahy-drodicyclopenta[b,e]pyridin-8-yl)carbamoyl)thiophene-2-sulfonimidamide], the pIC50 was 7.40 to 8.10. `CC1CCc2c1nc1c(c2NC(=O)N=S(N)(=O)c2cc(C(C)(C)O)cs2)CCC1` (single isomer, unassigned) [Compound 141b, (R,R/S) or (S,R/S)-4-(2-hydroxypropan-2-yl)-N′-((3-methyl-1,2,3,5,6,7-hexahydro-dicyclopenta[b,e]pyridin-8-yl)carbamoyl)thiophene-2-sulfonimidamide] gave a pIC50 of 6.70 to 7.40. For `CC1CCc2c1nc1c(c2NC(=O)N=S(N)(=O)c2cc(C(C)(C)O)cs2)CCC1` (single isomer, unassigned) [Compound 141ba, (S,S) or (S,R)-4-(2-hydroxypropan-2-yl)-N′-((3-methyl-1,2,3,5,6,7-hexahy-drodicyclopenta[b,e]pyridin-8-yl)carbamoyl)thiophene-2-sulfonimidamide], the pIC50 was 5.30 to 6.00. For `CC1CCc2c1nc1c(c2NC(=O)N=S(N)(=O)c2cc(C(C)(C)O)cs2)CCC1` (single isomer, unassigned) [Compound 141bb, (S,R) or (S,S)-4-(2-hydroxypropan-2-yl)-N′-((3-methyl-1,2,3,5,6,7-hexahy-drodicyclopenta[b,e]pyridin-8-yl)carbamoyl)thiophene-2-sulfonimidamide], the pIC50 was 4.52 to 5.30.

Same assay, conditions: Table B1; 2% fetal bovine serum; numeric bounds; read-out: Average IC50 of compounds in hTHP-1 assay: hTHP-1 IC50
`Cc1nc(C)c(C)c(NC(=O)N=S(N)(=O)c2cnc(C(C)(C)O)s2)c1C` (single isomer, unassigned) [Compound 133b, (S) or (R)-2-(2-hydroxypropan-2-yl)-N′-((2,3,5,6-tetramethylpyridin-4-yl)carbamoyl)thiazole-5-sulfonimidamide] was tested, and the pIC50 was < 4.52. For `CC1CCc2c1nc1c(c2NC(=O)N=S(N)(=O)c2ccc(CN(C)C)cc2)CCC1` (single isomer, unassigned) [Compound 134ab, (S,R) or (S,S)-4-((di-methylamino)methyl)-N′-((3-methyl-1,2,3,5,6,7-hexa-hydrodicyclo-penta[b,e]pyridin-8-yl)carbamoyl)benzene-sulfonimidamide], the pIC50 was < 4.52. `CCc1cc(NC(=O)N=S(N)(=O)c2cnc(C(C)(C)O)s2)c2c(n1)CCC2` (single isomer, unassigned) [Compound 137a, (R) or (S)-N′-((2-ethyl-6,7-dihydro-5H-cyclopenta[b]pyridin-4-yl)carbamoyl)-2-(2-hydroxypropan-2-yl)thiazole-5-sulfonimidamide] was tested, and the pIC50 was < 5.00. With `CCc1cc(NC(=O)N=S(N)(=O)c2cnc(C(C)(C)O)s2)c2c(n1)CCC2` (single isomer, unassigned) [Compound 137b, (S) or (R)-N′-((2-ethyl-6,7-dihydro-5H-cyclopenta[b]pyridin-4-yl)carbamoyl)-2-(2-hydroxypropan-2-yl)thiazole-5-sulfonimidamide] the pIC50 was < 4.52.

From patent US20230031406A1, “COMPOUNDS AND COMPOSITIONS FOR TREATING CONDITIONS ASSOCIATED WITH NLRP ACTIVITY” (Novartis AG, priority 2018, published 2023)
